Results on 19 compounds are retold here after patent US20240376068A1, “SIGMA LIGAND COMPOUNDS AND USES THEREOF” (Minerva Neurosciences, Inc., priority 2020, published 2024).

In test [1] the target is dopamine D2S receptor (Homo sapiens (Human), UniProt P14416). The test is described as follows: Dopamine D2S receptor binding assay (Eurofins Cerep item 1322). Conditions: [3H]7-OH-DPAT, read-out: % inhibition of control specific binding (1 μM). On the procedure: Assays for determining dopamine D2S receptor binding values were performed according to Eurofins Cerep protocol item 1322 and the results are represented in Table C below. The parameters used for the assay are described below. […] Common antipsychotics, in contrast, block dopamine receptors (Keefe, et al., J Clin Psychiatry. 2018; 79 (3): 17m11753).

Test [2] has as its target 5HT2A (Homo sapiens (Human), UniProt P28223). Put plainly: 5HT2A agonist effect assay. The test is classed as cell-based. Conditions: for activation at 0.1 µM: 100 nM, read-out: % stimulation relative to control (100 nM); for activation at 1 µM: read-out: % stimulation relative to control (1 μM). On the procedure: Assays for determining the agonist effect on 5HT2A were performed according to the procedure described in Example 21, and the results are represented in Table F below. The compounds in Table F have no agonist effect on 5HT2A at 1 μM and 100 nM.

Test [3] deals with T1, α1a (h) (Homo sapiens (Human), UniProt P35348). Put plainly: α1A adrenergic agonist effect assay. It is filed as cell-based. The following applies: α1A(h) agonist effect, 1 μM; read-out: % stimulation relative to control (1 μM). On the procedure:
Assays for determining the agonist effect on α1A (h) were performed according to the procedure described in Example 21, and the results are represented in Table D below.

The target of test [4] is Sigma 2 (h) (Homo sapiens (Human), UniProt Q5BJF2). Put plainly: Sigma-2 binding assay. The procedure: (§1) Assays for determining Sigma-1 and Sigma-2 binding values were performed according to Ganapathy, M. E. et al. (1999), J. Pharmacol. Exp. Ther., 289:251-260.
Test [5] concerns the target hERG (Homo sapiens (Human), UniProt Q12809). The test is described as follows: hERG inhibition assay. Background: Block of hERG is tested as a sign of cardiac risk.
Test [6] concerns the target sigma 1 (h) (Homo sapiens (Human), UniProt Q99720). Put plainly: Sigma-1 binding assay. Conditions: [3H](+)pentazocine, Jurkat cells; read-out: Sigma-1 Ki. The procedure: as §1
Test [7] deals with T1, α1a (h). The test is described as follows: α1A adrenergic antagonist effect assay. The following applies: for inhibition at 1 µM: α1A(h) antagonist effect, read-out: % inhibition of control values (1 μM). The test is classed as cell-based. The procedure:
Assays for determining the antagonist effect on α1A (h) were performed according to the procedure described in Example 21, and the results are represented in Table E below. […] No antagonist effect is observed for the other compounds.

Where [8] appears, read: [3H]DTG (+1 μM (+)pentazocine), Jurkat cells, read-out: Sigma-2 Ki.

Structures are written as SMILES. Read-outs that look alike come from different tables or passages of the source.

Chain of sigma 1 (h) (Q99720 whole entry): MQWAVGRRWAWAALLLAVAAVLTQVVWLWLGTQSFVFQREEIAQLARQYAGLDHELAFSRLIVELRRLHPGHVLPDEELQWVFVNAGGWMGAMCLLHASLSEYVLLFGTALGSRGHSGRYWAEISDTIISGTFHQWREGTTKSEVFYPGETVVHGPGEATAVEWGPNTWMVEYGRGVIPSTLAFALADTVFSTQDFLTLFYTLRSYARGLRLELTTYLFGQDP
T1 sequence (P35348 whole entry): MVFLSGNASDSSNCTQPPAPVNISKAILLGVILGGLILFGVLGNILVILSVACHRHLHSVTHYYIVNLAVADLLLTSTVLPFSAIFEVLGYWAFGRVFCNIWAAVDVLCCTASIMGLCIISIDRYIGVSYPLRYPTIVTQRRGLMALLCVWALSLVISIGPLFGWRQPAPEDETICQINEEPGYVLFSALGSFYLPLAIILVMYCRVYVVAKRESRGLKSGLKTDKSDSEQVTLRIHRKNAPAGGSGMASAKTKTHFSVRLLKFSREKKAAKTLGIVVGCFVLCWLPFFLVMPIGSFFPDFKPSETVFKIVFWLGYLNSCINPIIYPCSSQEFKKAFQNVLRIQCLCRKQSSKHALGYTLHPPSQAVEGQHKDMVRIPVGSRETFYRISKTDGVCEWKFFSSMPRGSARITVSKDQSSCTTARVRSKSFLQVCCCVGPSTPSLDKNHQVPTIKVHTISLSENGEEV
Chain of hERG (Q12809 whole entry): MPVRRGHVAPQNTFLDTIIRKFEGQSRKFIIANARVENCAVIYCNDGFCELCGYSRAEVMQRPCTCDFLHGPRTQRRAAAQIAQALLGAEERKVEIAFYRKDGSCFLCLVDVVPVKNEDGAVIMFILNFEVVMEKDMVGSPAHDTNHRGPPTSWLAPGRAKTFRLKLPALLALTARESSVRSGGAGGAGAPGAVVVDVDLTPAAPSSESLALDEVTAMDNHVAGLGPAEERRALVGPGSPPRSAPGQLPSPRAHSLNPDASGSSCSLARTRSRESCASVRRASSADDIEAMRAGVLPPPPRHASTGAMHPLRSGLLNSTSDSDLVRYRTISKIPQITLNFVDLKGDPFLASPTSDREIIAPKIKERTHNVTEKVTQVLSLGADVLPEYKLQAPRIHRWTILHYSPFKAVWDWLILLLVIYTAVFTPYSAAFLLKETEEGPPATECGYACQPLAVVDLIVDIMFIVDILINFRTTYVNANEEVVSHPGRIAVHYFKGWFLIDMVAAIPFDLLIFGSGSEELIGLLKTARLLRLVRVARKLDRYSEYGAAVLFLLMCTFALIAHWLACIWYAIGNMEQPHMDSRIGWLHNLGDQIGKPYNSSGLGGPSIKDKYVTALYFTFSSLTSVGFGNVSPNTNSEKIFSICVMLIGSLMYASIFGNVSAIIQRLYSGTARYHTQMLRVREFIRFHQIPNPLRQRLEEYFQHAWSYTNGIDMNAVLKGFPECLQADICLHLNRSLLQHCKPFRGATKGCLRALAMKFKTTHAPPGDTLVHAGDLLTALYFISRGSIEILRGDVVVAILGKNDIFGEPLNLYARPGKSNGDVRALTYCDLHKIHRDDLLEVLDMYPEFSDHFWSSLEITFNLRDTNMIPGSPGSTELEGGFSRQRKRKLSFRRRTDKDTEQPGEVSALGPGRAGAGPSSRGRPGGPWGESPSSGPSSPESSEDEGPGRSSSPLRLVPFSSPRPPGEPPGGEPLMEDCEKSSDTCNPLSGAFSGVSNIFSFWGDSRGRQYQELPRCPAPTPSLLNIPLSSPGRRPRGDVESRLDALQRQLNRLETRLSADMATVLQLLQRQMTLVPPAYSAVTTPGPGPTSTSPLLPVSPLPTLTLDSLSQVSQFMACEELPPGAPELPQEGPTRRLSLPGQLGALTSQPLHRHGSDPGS
Chain of Sigma 2 (h) (Q5BJF2 whole entry): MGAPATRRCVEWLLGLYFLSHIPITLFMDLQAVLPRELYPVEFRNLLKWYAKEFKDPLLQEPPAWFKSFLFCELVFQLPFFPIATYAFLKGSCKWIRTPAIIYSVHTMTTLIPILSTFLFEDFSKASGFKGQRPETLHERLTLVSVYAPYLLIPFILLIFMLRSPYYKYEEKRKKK
Chain of dopamine D2S receptor (P14416 other isoform, or with tags, fused parts or gaps): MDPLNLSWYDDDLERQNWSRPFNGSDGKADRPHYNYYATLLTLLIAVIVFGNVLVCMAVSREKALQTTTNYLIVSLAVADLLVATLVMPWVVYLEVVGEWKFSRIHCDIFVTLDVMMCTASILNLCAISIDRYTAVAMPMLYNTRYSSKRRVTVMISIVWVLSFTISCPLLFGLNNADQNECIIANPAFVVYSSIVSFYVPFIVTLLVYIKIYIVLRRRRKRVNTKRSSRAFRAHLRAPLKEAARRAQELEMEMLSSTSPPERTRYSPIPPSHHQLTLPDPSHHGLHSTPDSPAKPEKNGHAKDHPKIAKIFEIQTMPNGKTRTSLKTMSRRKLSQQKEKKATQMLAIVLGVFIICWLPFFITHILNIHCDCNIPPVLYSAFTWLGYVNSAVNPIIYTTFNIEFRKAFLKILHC

One may read the inhibition as the relative decrease from the control value, in per cent. As usually defined, the Ki is the equilibrium dissociation constant of an inhibitor or competing ligand from its target. In general, IC50 refers to the midpoint of a concentration-inhibition curve. Read a low IC50 as inhibition by little substance. As for `CC(C)OC(=O)N1CCC(C)(C)c2ccc(N3CCN(C4CCCC4)CC3)cc2C1` [Compound 79, isopropyl 8-(4-cyclopentylpiperazin-1-yl)-5,5-dimethyl-1,3,4,5-tetrahydro-2H-benzo[c]azepine-2-carboxylate], the inhibition at 1 µM in test [1] worked out at 19%; in test [7], 13%. Further, the activation at 0.1 µM in test [2] turned out to be 1%. For the same compound, the activation at 1 µM in test [2] and in test [3] was 0% throughout. Moreover, the Ki in test [4] (setting [8]) was 0.005 to 0.05 µM; in test [6] it was 0.0001 to 0.005 µM. The IC50 in test [5] was greater than 3 µM.

Take `CC1(C)CN(CCCO)Cc2cc(-c3ccc(C(F)(F)F)cc3)ccc21` [Compound 5, 3-(4,4-dimethyl-7-(4-(trifluoromethyl)phenyl)-3,4-dihydroisoquinolin-2(1H)-yl)propan-1-ol]: the inhibition constant (Ki) in test [4] (setting [8]) and in test [6] was 0.1 to 0.5 µM each time.

Regarding `CC1(C)CN(C(=O)OC2CCCCC2)Cc2cc(N3CCN(C4CCCC4)CC3)ccc21` [Compound 43, cyclohexyl 7-(4-cyclopentylpiperazin-1-yl)-4,4-dimethyl-3,4-dihydroisoquinoline-2(1H)-carboxylate], the figures for the inhibition at 1 µM in test [1] and in test [7] were 11% and 15%, respectively. In addition, in test [2], the activation at 0.1 µM is -4%. Moreover, the activation at 1 µM in test [2] and in test [3] was 0% throughout. Further, the Ki in test [4] (setting [8]) and in test [6] was 0.0001 to 0.005 µM throughout. This compound had an IC50 in test [5] of 2.77 µM.

As to `CCCN1Cc2cc(-c3ccc(C(F)(F)F)cc3)ccc2C(C)(C)C1` [Compound 6, 4,4-dimethyl-2-propyl-7-(4-(trifluoromethyl)phenyl)-1,2,3,4-tetrahydroisoquinoline], the Ki in test [4] (setting [8]) and in test [6] was greater than 0.5 µM in each case.

For the compound `CC1(C)CN(C(=O)c2cc(F)cc(Cl)c2)Cc2cc(N3CCN(C4CCCC4)CC3)ccc21` [Compound 38, (3-chloro-5-fluorophenyl)(7-(4-cyclopentylpiperazin-1-yl)-4,4-dimethyl-3,4-dihydroisoquinolin-2(1H)-yl)methanone], the inhibition at 1 µM was 1% in test [1] and 51% in test [7]. Besides, the activation at 0.1 µM in test [2] was 0%. For the same compound, the figures for the activation at 1 µM in test [2] and in test [3] were -1% and 0%, respectively. For the same compound, the inhibition constant (Ki) in test [4] (setting [8]) and in test [6] was 0.0001 to 0.005 µM in each case. This compound showed a half-inhibitory concentration (IC50) in test [5] of 2.04 µM. For the same compound, in test [7], the “antagonist effect on α1A (h) (in words)” value is recorded as “small antagonist effect”.

Turning to `CC1(C)CCN(C2CCCCC2)Cc2cc(-c3ccc(C(F)(F)F)cc3)ccc21` [Compound 32, 2-cyclohexyl-5,5-dimethyl-8-(4-(trifluoromethyl)phenyl)-2,3,4,5-tetrahydro-1H-benzo[c]azepine], the inhibition at 1 µM in test [1] stood at 8%; in test [7], 25%. Moreover, the activation at 0.1 µM in test [2] was 1%. The activation at 1 µM in test [2] turned out to be 2%; in test [3], 0%. The Ki in test [4] fell in the range of 0.05 to 0.1 µM. The compound also returned an IC50 in test [5] greater than 3 µM.

Turning to `CN1CCN(c2ccc3c(c2)CN(C(=O)OCc2ccccc2)CC3(C)C)CC1` [Compound 1, benzyl 4,4-dimethyl-7-(4-methylpiperazin-1-yl)-3,4-dihydroisoquinoline-2(1H)-carboxylate], the inhibition constant Ki in test [4] (setting [8]) and in test [6] was 0.1 to 0.5 µM in each case.

In the case of `CC1(C)CCN(CCCO)Cc2cc(-c3ccc(C(F)(F)F)cc3)ccc21` [Compound 11, 3-(5,5-dimethyl-8-(4-(trifluoromethyl)phenyl)-1,3,4,5-tetrahydro-2H-benzo[c]azepin-2-yl)propan-1-ol], the Ki was 0.1 to 0.5 µM in test [4] (setting [8]) and greater than 0.5 µM in test [6].

As to `COC(=O)CCN1CCN(c2ccc3c(c2)CN(C(=O)OCc2ccccc2)CC3(C)C)CC1` [Compound 3, benzyl 7-(4-(3-methoxy-3-oxopropyl)piperazin-1-yl)-4,4-dimethyl-3,4-dihydroisoquinoline-2(1H)-carboxylate], the figures for the Ki in test [4] (setting [8]) and in test [6] were 0.005 to 0.05 µM and 0.1 to 0.5 µM, respectively.

As for `Cc1cc(-c2ccc3c(c2)CN(CCC(=O)N2CCc4ccccc4C2)CCC3(C)C)cc(C)n1` [Compound 111, 1-(3,4-dihydroisoquinolin-2(1H)-yl)-3-(8-(2,6-dimethylpyridin-4-yl)-5,5-dimethyl-1,3,4,5-tetrahydro-2H-benzo[c]azepin-2-yl)propan-1-one], the inhibition at 1 µM in test [1] came out at 37%. Besides, in test [2], the activation at 0.1 µM is -1% and the activation at 1 µM was -2%. For the same compound, the activation at 1 µM in test [3] came out at 0%. For the same compound, the Ki in test [4] (setting [8]) is 0.05 to 0.1 µM. In addition, the 50% inhibitory concentration (IC50) in test [5] came to 2.22 µM. In addition, in test [7], the “antagonist effect on α1A (h) (in words)” value is “small antagonist effect” and the inhibition at 1 µM was 57%.

Turning to `CN1CCN(c2ccc3c(c2)CN(C(=O)OCc2ccccc2)CCC3(C)C)CC1` [Compound 7, benzyl 5,5-dimethyl-8-(4-methylpiperazin-1-yl)-1,3,4,5-tetrahydro-2H-benzo[c]azepine-2-carboxylate], the inhibition constant Ki in test [4] (setting [8]) lay within 0.1 to 0.5 µM; in test [6] it was 0.005 to 0.05 µM.

`CC1(C)CCN(C(=O)C2CCCCC2)Cc2cc(N3CCC(N4CCOCC4)CC3)ccc21` [Compound 86, cyclohexyl(5,5-dimethyl-8-(4-morpholinopiperidin-1-yl)-1,3,4,5-tetrahydro-2H-benzo[c]azepin-2-yl)methanone]: the values for the inhibition at 1 µM in test [1] and in test [7] were 2% and -3%, respectively. The activation at 0.1 µM in test [2] was 2%. Further, the activation at 1 µM is 1% in test [2] and 0% in test [3]. This compound gave an IC50 in test [5] greater than 3 µM. Besides, the Ki in test [6] lay in the range of 0.0001 to 0.005 µM.

Consider `CC1(C)CCN(C(=O)c2cccc3c2OCO3)Cc2cc(N3CCC(N4CCOCC4)CC3)ccc21` [Compound 84, benzo[d][1,3]dioxol-4-yl(5,5-dimethyl-8-(4-morpholinopiperidin-1-yl)-1,3,4,5-tetrahydro-2H-benzo[c]azepin-2-yl)methanone], for which the inhibition at 1 µM was -1% in test [1] and 19% in test [7]. In addition, the activation at 0.1 µM in test [2] was -2%. Besides, the activation at 1 µM in test [2] was -2%; in test [3], 0%. This compound also displayed an IC50 in test [5] greater than 3 µM. Moreover, the Ki in test [6] is 0.005 to 0.05 µM.

Take `CCCN1CCN(c2ccc3c(c2)CN(C(=O)OCc2ccccc2)CCC3(C)C)CC1` [Compound 8, benzyl 5,5-dimethyl-8-(4-propylpiperazin-1-yl)-1,3,4,5-tetrahydro-2H-benzo[c]azepine-2-carboxylate]: the Ki lay within 0.005 to 0.05 µM in test [4] (setting [8]) and 0.0001 to 0.005 µM in test [6].

`COC(=O)CCN1CCN(c2ccc3c(c2)CN(C(=O)OCc2ccccc2)CCC3(C)C)CC1` [Compound 9, benzyl 8-(4-(3-methoxy-3-oxopropyl)piperazin-1-yl)-5,5-dimethyl-1,3,4,5-tetrahydro-2H-benzo[c]azepine-2-carboxylate]: the inhibition constant Ki in test [4] (setting [8]) and in test [6] was 0.005 to 0.05 µM in each case.

As to `Cc1cc(-c2ccc3c(c2)CN(CCC(=O)N2CCC(C)CC2)CCC3(C)C)cc(C)n1` [Compound 131, 3-(8-(2,6-dimethylpyridin-4-yl)-5,5-dimethyl-1,3,4,5-tetrahydro-2H-benzo[c]azepin-2-yl)-1-(4-methylpiperidin-1-yl)propan-1-one], the inhibition at 1 µM in test [1] came to 21%; in test [7] it was 31%. Also, the activation at 0.1 µM in test [2] is 1%. For the same compound, the activation at 1 µM in test [2] and in test [3] was -1% throughout. For the same compound, the inhibition constant Ki in test [4] was 0.05 to 0.1 µM. Further, the 50% inhibitory concentration (IC50) in test [5] was greater than 3 µM.

Turning to `CC1(C)CN(C2CCCC2)Cc2cc(-c3ccc(C(F)(F)F)cc3)ccc21` [Compound 4, 2-cyclopentyl-4,4-dimethyl-7-(4-(trifluoromethyl)phenyl)-1,2,3,4-tetrahydroisoquinoline], the inhibition constant (Ki) is 0.1 to 0.5 µM in test [4] (setting [8]) and greater than 0.5 µM in test [6].

In the case of `CCCN1CCC(C)(C)c2ccc(-c3ccc(C(F)(F)F)cc3)cc2C1` [Compound 12, 5,5-dimethyl-2-propyl-8-(4-(trifluoromethyl)phenyl)-2,3,4,5-tetrahydro-1H-benzo[c]azepine], the results for the inhibitory constant (Ki) in test [4] (setting [8]) and in test [6] were 0.05 to 0.1 µM and greater than 0.5 µM, respectively.

In the case of `CC1(C)CCN(C(=O)C2CCCC2)Cc2cc(N3CCC(N4CCOCC4)CC3)ccc21` [Compound 85, cyclopentyl(5,5-dimethyl-8-(4-morpholinopiperidin-1-yl)-1,3,4,5-tetrahydro-2H-benzo[c]azepin-2-yl)methanone], the inhibition at 1 µM in test [1] was -3%; in test [7], 10%. Further, in test [2], the activation at 0.1 µM was -2%. Moreover, the activation at 1 µM in test [2] was 0%; in test [3], 1%. The compound further gave an IC50 in test [5] greater than 3 µM. Besides, the Ki in test [6] is 0.005 to 0.05 µM.
